Laboratory results published in patent US20250319213A1, “FUNCTIONALIZED BISAMINOTHIOL DERIVATIVES, COMPLEXES WITH THESE BISAMINOTHIOL DERIVATIVES AND USE OF SAID COMPLEXES AS DIAGNOSTICS AND THERAPEUTICS” (ABX ADVANCED BIOCHEMICAL COMPOUNDS – BIOMEDIZINISCHE …, priority 2022, published 2025).

Columns and labels:
PSMA [1] = biological target: T1, PSMA (Homo sapiens, UniProt Q04609); assay: Competitive binding affinity on LNCaP cells against [68Ga]Ga-PSMA-11 (competition); conditions: natRe complex of the listed compound, 1 nM [68Ga]Ga-PSMA-11, 1 h 37° C., mean ± SEM
T1 construct: host or cells: LNCaP human prostate carcinoma cells
T1 sequence (Q04609 whole entry): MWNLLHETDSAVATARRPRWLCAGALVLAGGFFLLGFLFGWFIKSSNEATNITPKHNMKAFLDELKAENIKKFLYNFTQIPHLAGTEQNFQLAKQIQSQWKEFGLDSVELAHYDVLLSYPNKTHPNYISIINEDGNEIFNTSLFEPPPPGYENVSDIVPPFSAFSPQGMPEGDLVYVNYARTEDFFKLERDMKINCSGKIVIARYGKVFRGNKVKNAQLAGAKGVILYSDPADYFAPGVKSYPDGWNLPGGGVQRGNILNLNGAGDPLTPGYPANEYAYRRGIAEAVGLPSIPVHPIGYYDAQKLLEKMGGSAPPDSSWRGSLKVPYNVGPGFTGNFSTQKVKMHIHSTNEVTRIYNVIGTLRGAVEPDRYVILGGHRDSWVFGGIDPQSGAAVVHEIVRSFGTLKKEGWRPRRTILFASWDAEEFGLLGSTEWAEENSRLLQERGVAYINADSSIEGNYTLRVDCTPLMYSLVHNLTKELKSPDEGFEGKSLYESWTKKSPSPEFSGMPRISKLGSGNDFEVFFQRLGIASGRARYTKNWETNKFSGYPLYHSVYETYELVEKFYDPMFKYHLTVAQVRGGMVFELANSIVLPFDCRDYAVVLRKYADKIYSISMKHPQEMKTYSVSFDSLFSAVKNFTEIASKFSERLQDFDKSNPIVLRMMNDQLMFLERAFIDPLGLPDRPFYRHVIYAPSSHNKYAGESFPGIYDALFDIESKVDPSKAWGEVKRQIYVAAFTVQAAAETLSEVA
Procedure: (§1) Competition, saturation and internalization assays were assessed using the high PSMA expressing human prostate carcinoma cell line LNCaP (ATCC® CRL-1740). The cells were grown as monolayer at 37° C. in a humidified atmosphere comprising 5% CO2 and 95% air in RPMI medium including 10% FCS (Merck KGAA, Germany). After washing the confluent cells twice with phosphate buffered saline (PBS) and detaching them with trypsin/EDTA (0.05%/0.02%), the cells were suspended in medium and counted (Casy TT, Omni Life Science, Germany).
For competition monolayer of LNCaP cells were seeded, 1×10^5 cells/well in 24-well plates two days before the assay. On the day of competition, after aspirating the medium, 100 μL of PBS and, for competition 100 μL of different concentrations of the test compound in PBS (10^−12 to 10^−6 M) were pipetted into the wells, simultaneously to 400 μL of medium including 1 nM of [^68Ga]Ga-PSMA-11.
(§2) After 1 hour of incubation at 37° C. both for competition and saturation samples, the supernatants were aspirated and the cells washed twice with cold PBS. The cell lawn was lysed with 500 μL NaOH/SDS (0.1 M/1%) by shaking for 3 to 5 minutes. After transferring the lysates into measuring tubes, the activity of the samples was measured in a gamma counter (2480 Automatic Gamma Counter Wizard 2, Perkin Elmer, USA).
(§3) The half maximal inhibitory concentrations (IC50) and the dissociations constants (Kd) were calculated by fitting the data using a nonlinear curve-fitting program (GraphPad Prism 9). With the Kd value of [^68Ga]Ga-PSMA-11 on LNCaP and the known concentration of [^68Ga]Ga-PSMA-11 in the competition assay the inhibition constants (Ki) was also determined with the curve-fitting program.

PSMA [2] = biological target: T1, PSMA; assay: Direct binding affinity on LNCaP cells (saturation); conditions: [99mTc]TcO complex of the listed compound, saturation 0.3-40 nM, 1 h 37° C., mean ± SEM, read-out: Kd [nM] of [99mTc]TcO-complexes
Procedure: as §1
For saturation monolayer of LNCaP cells were seeded, 5×10^4 cells/well in 48-well plates two days before the assay. On the day of saturation, after aspirating the medium, 160 μL of medium (for ^99mTc-labeled radioligand with D-mannitol (1 mg/mL)) were pipetted per well, for non-specific binding samples including 100 μM 2-PMPA. After preincubation for 5 min, 40 μL activity ([^68Ga]Ga-PSMA-11 or ^99mTc-labeled radioligand solution) were added (total volume/well: 200 μL). Eight concentrations ranged between 0.3 and 40 nM.
as §2, §3

[3] = Product stability in mouse plasma (in vitro); assay type: in vitro ADME; conditions: mean ± SD (n = 3-4), normalized to fraction immediately after preparation
Procedure: (§4) In brief, the freshly produced ^99mTc-labeled radioligand solution (10-20 MBq, 20-100 μL) was added to the respective medium (200-400 μL), vortexed quickly, and shook gently at the respective temperature mentioned below. At certain time points, samples were taken, diluted, and measured by radio-RP-HPLC. Hereby, investigation of plasma samples included protein precipitation with the 4-fold volume of an ice-cold mixture of methanol/water (4/1, v/v), intensive shaking (5 min) and centrifugation (14,000 rpm, 10 min), before inspection of the supernatant. In addition, the recovery of extracted activity was calculated after activity measurement of supernatant and residue by a gamma counter.

[4] = Determination of log D values (shake-flask, octanol/medium); assay type: physicochemical; conditions: for LogD (shake-flask, octanol/medium) Na-phosphate pH 7.4: 4.4 mM Na2HPO4, 2.2 mM NaH2PO4, pH 7.4
Procedure: Log D values were determined for different media by the shake-flask method (Andrés, A.; Rosés, M.; Ràfols, C.; Bosch, E.; Espinosa, S.; Segarra, V.; Huerta, J. M. Setup and validation of shake-flask procedures for the determination of partition coefficients (log D) from low drug amounts. Eur. J. Pharm. Sci. 2015, 76, 181-191.). In preparation, octanol was saturated with each of the used buffer solutions and vice versa. To 3 mL of octanol, together with 3 mL of buffer solution 200-300 μL of the ^99mTc-labeled radioligand (15-25 MBq, samples in triplicate) were added and shaken vigorously for 30 min. After centrifugation at 9,000 rpm for 15 min, samples were taken from both separated phases and measured by gamma-counter. Log D values were calculated as the ratio of radioactivity determined in octanol and aqueous phase.

[5] = Product stability in DPBS at 25° C.; assay type: physicochemical; conditions: DPBS (+Ca2+, +Mg2+), mean ± SD, normalized to fraction immediately after preparation
Procedure: as §4

[6] = Product stability at room temperature (without addition of any media); assay type: physicochemical; conditions: no media, radio-RP-HPLC
Procedure: as §4

LNCaP cells = assay: Determination of the internalization (surface binding and internalized activity); assay type: cell-based, human; conditions: 1 h
Procedure: as §1
For internalization LNCaP and PC3 cells were seeded, 1×10^5 cells/well in 24-well plates two days before the assay. On the day of internalization, after aspirating the medium, 100 μL of PBS and, for non-specific binding samples, 100 μL 2-PMPA (100 μM) were pipetted into the wells, followed by 400 μL medium including activity. The concentration of the ^99mTc-labeled radioligands was 25 nM. After 1 h of incubation at 37° C. and adjacent well plates at 4° C., the supernatant was removed and the cells washed with cold PBS. Surface-bound activity was stripped with 4° C. cold acid-wash buffer (0.2 M glycine, pH 2.8) for 5 min. The acid wash buffer was transferred from the plate wells to measuring tubes, as was the PBS buffer after washing once (binding on the surface). Cytosolic activity was determined after treatment with cell lysis buffer (0.1 M NaOH/1% SDS). Cell surface and cytosolic activity were measured separately in a gamma counter. Determination of protein content from cell lysate was performed using a spectrophotometer (NanoDrop, Thermo Fisher Scientific, USA) at an absorbance of 280 nm.

Compound | Ki (PSMA [1]) | Kd (PSMA [2]) | Fraction of radioligand after 6 h in mouse plasma at 37° C. [3] | LogD (shake-flask, octanol/medium) Na-phosphate pH 7.4 [4] | LogD (shake-flask, octanol/medium) PBS 0.1M pH 7.4 [4] | LogD (shake-flask, octanol/medium) TRIS buffer 0.1M pH 7.4 [4] | Fraction of radioligand in DPBS at 25° C., 1 h [5] | Fraction of radioligand in DPBS at 25° C., 2 h [5] | Fraction of radioligand in DPBS at 25° C., 4 h [5] | Fraction of radioligand in DPBS at 25° C., 20 h [5] | Fraction of radioligand at indicated time point after preparation, 0 h ([6]; 0 h) | Fraction of radioligand at indicated time point after preparation, 2 h ([6]; 2 h) | Fraction of radioligand at indicated time point after preparation, 4 h ([6]; 4 h) | Fraction of radioligand at indicated time point after preparation, 6 h ([6]; 6 h) | % Internalization, 37° C. (LNCaP cells; 37° C.) | Internalization, 4° C. (% AD/mg Protein) (LNCaP cells; cytosolic activity, 25 nM radioligand, 4° C., mean ± SEM) | Internalization, 37° C. (% AD/mg Protein) (LNCaP cells; cytosolic activity, 25 nM radioligand, 37° C., mean ± SEM) | Binding, 4° C. (% AD/mg Protein) (LNCaP cells; surface-bound activity, 25 nM radioligand, 4° C., mean ± SEM) | Binding, 37° C. (% AD/mg Protein) (LNCaP cells; surface-bound activity, 25 nM radioligand, 37° C., mean ± SEM)
CC(C)(S)CNCCN(CCCCC(=O)N[C@@H](Cc1ccccc1)C(=O)N[C@@H](Cc1ccccc1)C(=O)N[C@@H](CCCCNC(=O)CCCCCCC(=O)NCCCC[C@H](NC(=O)N[C@@H](CCC(=O)O)C(=O)O)C(=O)O)C(=O)O)CC(C)(C)S [Compound 1] | 4.8 ± 3.4 nM | 15.5 ± 3.2 nM | – | – | – | – | – | – | – | – | – | – | – | – | – | – | – | – | –
CC(C)(S)CNCCN(CCCCC(=O)N[C@@H](CCCCNC(=O)CCCCCCC(=O)NCCCC[C@H](NC(=O)N[C@@H](CCC(=O)O)C(=O)O)C(=O)O)C(=O)O)CC(C)(C)S [Compound 3] | 7.3 ± 1.6 nM | 15.8 ± 9.1 nM | – | – | – | – | – | – | – | – | – | – | – | – | – | – | – | – | –
CC1(C)CN(CCCCC(=O)N[C@@H](Cc2ccccc2)C(=O)N[C@@H](Cc2ccccc2)C(=O)N[C@H](CCCCNC(=O)CCCCCCC(=O)NCCCC[C@H](NC(=O)N[C@@H](CCC(=O)O)C(=O)O)C(=O)O)C(=O)O)CC[N]2CC(C)(C)[S][99Tc]2(=[O])[S]1 (stereo partly shown) [[^99mTc]TcO-2] | – | – | 98.3 ± 1.1% | −2.08 ± 0.01 | −2.16 ± 0.03 | −2.16 ± 0.02 | 89.9 ± 2.3% | 97.7 ± 2.3% | 80.7 ± 12.0% | 89.2 ± 2.7% | – | – | – | – | – | – | – | – | –
CC1(C)CN(CCCCC(=O)N[C@@H](CCCCNC(=O)CCCCCCC(=O)NCCCC[C@H](NC(=O)N[C@@H](CCC(=O)O)C(=O)O)C(=O)O)C(=O)O)CC[N]2CC(C)(C)[S][99Tc]2(=[O])[S]1 (stereo partly shown) [[^99mTc]TcO-3] | – | – | 98.5 ± 0.8% | −1.93 ± 0.01 | −2.07 ± 0.01 | −2.08 ± 0.02 | 98.2 ± 1.9% | 97.3 ± 3.6% | 98.4 ± 1.0% | 89.1 ± 7.4% | 96% | 93% | 92% | 91% | 35.8% | 0.7 ± 0.2 % AD/mg Protein | 1.0 ± 0.3 % AD/mg Protein | 2.1 ± 1.2 % AD/mg Protein | 1.8 ± 0.3 % AD/mg Protein
CC1(C)CN(CCCCC(=O)N[C@@H](Cc2ccccc2)C(=O)N[C@@H](Cc2ccccc2)C(=O)N[C@@H](CCCCNC(=O)CCCCCCC(=O)NCCCC[C@H](NC(=O)N[C@@H](CCC(=O)O)C(=O)O)C(=O)O)C(=O)O)CC[N]2CC(C)(C)[S][99Tc]2(=[O])[S]1 (stereo partly shown) [[^99mTc]TcO-1] | – | – | 96.8 ± 0.3% | −2.18 ± 0.002 | −1.62 ± 0.01 | −2.18 ± 0.01 | 101.5 ± 0.6% | 99.5 ± 0.8% | 100.2 ± 1.0% | 93.5 ± 1.8% | – | – | – | – | – | – | – | – | –
